# Test results taken from patent US20240391965A1, “STAPLED ANTIMICROBIAL PEPTIDES (STAMPS) AND USES THEREOF” (Lytica Therapeutics, Inc., priority 2021, published 2024).
# Starred links: 1 amine or outer side, 2 acyl side, 3 side chain; linkers in the order of their positions; H or OH if unused. Positions of bridges follow the written chain, without caps; N, C: chain ends. Residues, ends and D or L forms follow the SMILES beside them. Biphenyl(4,4'-CH2)2 = c1cc(-c2ccc(C[*:2])cc2)ccc1C[*:1]; mXylylene = c1cc(C[*:1])cc(C[*:2])c1; pXylylene = c1cc(C[*:2])ccc1C[*:1]; X1 = C(=CC[*:2])C[*:1]
# Key:
# [1] = 48 hours cytotoxicity assay (CellTiter-Glo), liver toxicity; type: cell-based, human
# Summary of the method: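 Viability from CellTiter-Glo luminescence after StAMP dilution series or vehicle acted on HepG2 cells for 48 h at 37 °C. Cells were grown in EMEM plus 10% FBS and given 4 h to attach before dosing.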
# [2] = 90 minute cytotoxicity assay (LDH release), renal toxicity; type: cell-based
# From the text: In some embodiments, a peptide provided herein has renal toxicity that is at least 10% (e.g., at least 15%, at least 20%, at least 25%, at least 30%, at least 35%, at least 40%, at least 45%, at least 50%, at least 55%, at least 60%, at least 65%, at least 65%, at least 70%, at least 75%, at least 80%, at least 85%, at least 90%, at least 95%, at least 99%) lower than the renal toxicity of the reference. The renal toxicity of a peptide can be measured in vitro using a renal proximal tubule epithelial cell (RPTEC) renal toxicity assay.
# Cell culture: RPTEC were maintained in MEM media supplemented with growth factors. HEPG2 cell line was maintained in Eagle's Minimum Essential Medium (EMEM) supplemented with fetal bovine serum to a final concentration of 10%.
# 90 minute cytotoxicity assay: Cells were plated in a 96-well format, and after overnight incubation, media was replaced with fresh media. Serial dilutions of StAMPs from a 5 mg/mL water stock, or vehicle, were added to the cells in a final volume of 100 μl. After incubating at 37° C. for 90 min, 50 μl of cell culture media was transferred to a clear 96-well plate, incubated with 50 μl of lactate dehydrogenase (LDH) assay reagent for 10 min, and absorbance measured at 490 nm on a microplate reader.
# Renal toxicity was measured after 90 minutes of incubation, while liver toxicity was measured after 48 hours of incubation with StAMPs. N/A=not tested.
Compound,IC50 [1],IC50 [2]
CC[C@H](C)[C@H](NC(=O)[C@H](CC(C)C)NC(=O)[C@H](CC(C)C)NC(=O)[C@H](CC(N)=O)NC(=O)[C@H](CCCCN)NC(=O)[C@@H](NC(=O)[C@H](CCCCN)NC(=O)[C@H](CCCCN)NC(=O)CNC(=O)[C@H](C)NC(=O)[C@H](CC(C)C)NC(=O)[C@@H]1CSCc2cccc(c2)CSC[C@H](N)C(=O)N[C@@H]([C@@H](C)CC)C(=O)N[C@@H](Cc2ccccc2)C(=O)N[C@@H](CO)C(=O)N1)[C@@H](C)CC)C(=O)N[C@@H](CO)C(=O)NCC(=O)N[C@@H](CC(C)C)C(=O)N[C@@H](CCCCN)C(=O)NCC(N)=O [compound 36] (H-CIFSCLAGKKIKNLLISGLKG-NH2; linker 1-5 via mXylylene; N-terminus assumed),75 µg/mL,~200 µg/mL
CC[C@H](C)[C@H](NC(=O)[C@H](CC(C)C)NC(=O)[C@H](CC(C)C)NC(=O)[C@H](CC(N)=O)NC(=O)[C@H](CCCCN)NC(=O)[C@@H](NC(=O)[C@H](CCCCN)NC(=O)[C@H](CCCCN)NC(=O)CNC(=O)[C@H](C)NC(=O)[C@H](CC(C)C)NC(=O)[C@@H]1CSCc2ccc(cc2)CSC[C@H](N)C(=O)N[C@@H]([C@@H](C)CC)C(=O)N[C@@H](Cc2ccccc2)C(=O)N[C@@H](CO)C(=O)N1)[C@@H](C)CC)C(=O)N[C@@H](CO)C(=O)NCC(=O)N[C@@H](CC(C)C)C(=O)N[C@@H](CCCCN)C(=O)NCC(N)=O [compound 37] (H-CIFSCLAGKKIKNLLISGLKG-NH2; linker 1-5 via pXylylene; N-terminus assumed),33 µg/mL,140 µg/mL
CC[C@H](C)[C@H](NC(=O)[C@H](CC(C)C)NC(=O)[C@H](CC(C)C)NC(=O)[C@H](CC(N)=O)NC(=O)[C@H](CCCCN)NC(=O)[C@@H](NC(=O)[C@H](CCCCN)NC(=O)[C@H](CCCCN)NC(=O)CNC(=O)[C@H](C)NC(=O)[C@H](CC(C)C)NC(=O)[C@@H]1CSCC=CCSC[C@H](N)C(=O)N[C@@H]([C@@H](C)CC)C(=O)N[C@@H](Cc2ccccc2)C(=O)N[C@@H](CO)C(=O)N1)[C@@H](C)CC)C(=O)N[C@@H](CO)C(=O)NCC(=O)N[C@@H](CC(C)C)C(=O)N[C@@H](CCCCN)C(=O)NCC(N)=O [compound 38] (H-CIFSCLAGKKIKNLLISGLKG-NH2; linker 1-5 via X1; N-terminus assumed),> 200 µg/mL,> 200 µg/mL
CC[C@H](C)[C@H](NC(=O)CN)C(=O)N[C@H]1CSCc2cccc(c2)CSC[C@@H](C(=O)NCC(=O)N[C@@H](CCCCN)C(=O)N[C@@H](CCCCN)C(=O)N[C@H](C(=O)N[C@@H](CCCCN)C(=O)N[C@@H](CC(N)=O)C(=O)N[C@@H](CC(C)C)C(=O)N[C@@H](CC(C)C)C(=O)N[C@H](C(=O)N[C@@H](CO)C(=O)NCC(=O)N[C@@H](CC(C)C)C(=O)N[C@@H](CCCCN)C(=O)NCC(N)=O)[C@@H](C)CC)[C@@H](C)CC)NC(=O)[C@H](CC(C)C)NC(=O)[C@H](CCCCN)NC(=O)[C@H](CO)NC1=O [compound 39] (H-GICSKLCGKKIKNLLISGLKG-NH2; linker 3-7 via mXylylene),103 µg/mL,113 µg/mL
CC[C@H](C)[C@H](NC(=O)CN)C(=O)N[C@H]1CSCc2ccc(cc2)CSC[C@@H](C(=O)NCC(=O)N[C@@H](CCCCN)C(=O)N[C@@H](CCCCN)C(=O)N[C@H](C(=O)N[C@@H](CCCCN)C(=O)N[C@@H](CC(N)=O)C(=O)N[C@@H](CC(C)C)C(=O)N[C@@H](CC(C)C)C(=O)N[C@H](C(=O)N[C@@H](CO)C(=O)NCC(=O)N[C@@H](CC(C)C)C(=O)N[C@@H](CCCCN)C(=O)NCC(N)=O)[C@@H](C)CC)[C@@H](C)CC)NC(=O)[C@H](CC(C)C)NC(=O)[C@H](CCCCN)NC(=O)[C@H](CO)NC1=O [compound 40] (H-GICSKLCGKKIKNLLISGLKG-NH2; linker 3-7 via pXylylene; N-terminus assumed),124 µg/mL,117 µg/mL
CC[C@H](C)[C@H](NC(=O)CN)C(=O)N[C@@H](Cc1ccccc1)C(=O)N[C@@H](CO)C(=O)N[C@@H](CCCCN)C(=O)N[C@H]1CSCc2cccc(c2)CSC[C@@H](C(=O)N[C@H](C(=O)N[C@@H](CCCCN)C(=O)N[C@@H](CC(N)=O)C(=O)N[C@@H](CC(C)C)C(=O)N[C@@H](CC(C)C)C(=O)N[C@H](C(=O)N[C@@H](CO)C(=O)NCC(=O)N[C@@H](CC(C)C)C(=O)N[C@@H](CCCCN)C(=O)NCC(N)=O)[C@@H](C)CC)[C@@H](C)CC)NC(=O)[C@H](CCCCN)NC(=O)CNC(=O)[C@H](C)NC1=O [compound 41] (H-GIFSKCAGKCIKNLLISGLKG-NH2; linker 6-10 via mXylylene; N-terminus assumed),21 µg/mL,58 µg/mL
CC[C@H](C)[C@H](NC(=O)CN)C(=O)N[C@@H](Cc1ccccc1)C(=O)N[C@@H](CO)C(=O)N[C@@H](CCCCN)C(=O)N[C@@H](CC(C)C)C(=O)N[C@@H](C)C(=O)NCC(=O)N[C@H]1CSCc2cccc(c2)CSC[C@@H](C(=O)N[C@@H](CC(C)C)C(=O)N[C@@H](CC(C)C)C(=O)N[C@H](C(=O)N[C@@H](CO)C(=O)NCC(=O)N[C@@H](CC(C)C)C(=O)N[C@@H](CCCCN)C(=O)NCC(N)=O)[C@@H](C)CC)NC(=O)[C@H](CCCCN)NC(=O)[C@H]([C@@H](C)CC)NC(=O)[C@H](CCCCN)NC1=O [compound 42] (H-GIFSKLAGCKIKCLLISGLKG-NH2; linker 9-13 via mXylylene; N-terminus assumed),> 200 µg/mL,> 200 µg/mL
CC[C@H](C)[C@H](NC(=O)CN)C(=O)N[C@@H](Cc1ccccc1)C(=O)N[C@@H](CO)C(=O)N[C@@H](CCCCN)C(=O)N[C@@H](CC(C)C)C(=O)N[C@@H](C)C(=O)NCC(=O)N[C@H]1CSCC=CCSC[C@@H](C(=O)N[C@@H](CC(C)C)C(=O)N[C@@H](CC(C)C)C(=O)N[C@H](C(=O)N[C@@H](CO)C(=O)NCC(=O)N[C@@H](CC(C)C)C(=O)N[C@@H](CCCCN)C(=O)NCC(N)=O)[C@@H](C)CC)NC(=O)[C@H](CCCCN)NC(=O)[C@H]([C@@H](C)CC)NC(=O)[C@H](CCCCN)NC1=O [compound 43] (H-GIFSKLAGCKIKCLLISGLKG-NH2; linker 9-13 via X1; N-terminus assumed),> 200 µg/mL,> 200 µg/mL
CC[C@H](C)[C@H](NC(=O)CN)C(=O)N[C@@H](Cc1ccccc1)C(=O)N[C@@H](CO)C(=O)N[C@@H](CCCCN)C(=O)N[C@@H](CC(C)C)C(=O)N[C@@H](C)C(=O)NCC(=O)N[C@@H](CCCCN)C(=O)N[C@@H](CCCCN)C(=O)N[C@H](C(=O)N[C@@H](CCCCN)C(=O)N[C@@H](CC(N)=O)C(=O)N[C@@H](CC(C)C)C(=O)N[C@@H](CC(C)C)C(=O)N[C@H](C(=O)N[C@H]1CSCc2cccc(c2)CSC[C@@H](C(N)=O)NC(=O)[C@H](CCCCN)NC(=O)[C@H](CC(C)C)NC(=O)CNC1=O)[C@@H](C)CC)[C@@H](C)CC [compound 44] (H-GIFSKLAGKKIKNLLICGLKC-NH2; linker 17-21 via mXylylene; N-terminus assumed),48 µg/mL,86 µg/mL
CC[C@H](C)[C@H](NC(=O)CN)C(=O)N[C@@H](Cc1ccccc1)C(=O)N[C@@H](CO)C(=O)N[C@@H](CCCCN)C(=O)N[C@@H](CC(C)C)C(=O)N[C@@H](C)C(=O)NCC(=O)N[C@@H](CCCCN)C(=O)N[C@@H](CCCCN)C(=O)N[C@H](C(=O)N[C@@H](CCCCN)C(=O)N[C@@H](CC(N)=O)C(=O)N[C@@H](CC(C)C)C(=O)N[C@@H](CC(C)C)C(=O)N[C@H](C(=O)N[C@H]1CSCc2ccc(cc2)CSC[C@@H](C(N)=O)NC(=O)[C@H](CCCCN)NC(=O)[C@H](CC(C)C)NC(=O)CNC1=O)[C@@H](C)CC)[C@@H](C)CC [compound 45] (H-GIFSKLAGKKIKNLLICGLKC-NH2; linker 17-21 via pXylylene; N-terminus assumed),83 µg/mL,105 µg/mL
"CC[C@H](C)[C@H](NC(=O)[C@H](CC(C)C)NC(=O)[C@H](CC(C)C)NC(=O)[C@H](CC(N)=O)NC(=O)[C@H](CCCCN)NC(=O)[C@@H](NC(=O)[C@H](CCCCN)NC(=O)[C@@H]1CSCc2ccc(cc2)-c2ccc(cc2)CSC[C@H](NC(=O)CN)C(=O)N[C@@H](Cc2ccccc2)C(=O)N[C@@H](CO)C(=O)N[C@@H](CCCCN)C(=O)N[C@@H](CC(C)C)C(=O)N[C@@H](C)C(=O)NCC(=O)N1)[C@@H](C)CC)C(=O)N[C@@H](CO)C(=O)NCC(=O)N[C@@H](CC(C)C)C(=O)N[C@@H](CCCCN)C(=O)NCC(N)=O [compound 53] (H-GCFSKLAGCKIKNLLISGLKG-NH2; linker 2-9 via Biphenyl(4,4'-CH2)2; N-terminus assumed)",78 µg/mL,40 µg/mL
"CC[C@H](C)[C@H](NC(=O)CN)C(=O)N[C@H]1CSCc2ccc(cc2)-c2ccc(cc2)CSC[C@@H](C(=O)N[C@H](C(=O)N[C@@H](CCCCN)C(=O)N[C@@H](CC(N)=O)C(=O)N[C@@H](CC(C)C)C(=O)N[C@@H](CC(C)C)C(=O)N[C@H](C(=O)N[C@@H](CO)C(=O)NCC(=O)N[C@@H](CC(C)C)C(=O)N[C@@H](CCCCN)C(=O)NCC(N)=O)[C@@H](C)CC)[C@@H](C)CC)NC(=O)[C@H](CCCCN)NC(=O)CNC(=O)[C@H](C)NC(=O)[C@H](CC(C)C)NC(=O)[C@H](CCCCN)NC(=O)[C@H](CO)NC1=O [compound 56] (H-GICSKLAGKCIKNLLISGLKG-NH2; linker 3-10 via Biphenyl(4,4'-CH2)2; N-terminus assumed)",34 µg/mL,17 µg/mL
